From US5756776A, “Semi-synthetic taxanes with anti-tumoural activity” (Indena S.p.A., priority 1994, dated 1998)

Columns and labels:
Format in all cases: cell-based
L1210 (murine leukemia) = test: cytotoxic effect on L1210 tumour cell line (comparison with taxol); settings: exposure time 48 h, RPMI 1640 + 20 mM HEPES + 2 mM L-glutamine
Method: (§1) The products of the present invention were screened for their cytotoxic effect on different tumour cell lines, comparing their action with that of taxol.
(§2) Standard conditions: substrate RPMI 1640 + 20 mM HEPES + 2 mM Lglutamine.

A121 (Human ovarian) = test: cytotoxic effect on A121 tumour cell line (comparison with taxol); settings: exposure time 72 h, RPMI 1640 + 20 mM HEPES + 2 mM L-glutamine
Method: as §1, §2

A549 (Human NSCLC) = test: cytotoxic effect on A549 tumour cell line (comparison with taxol); settings: exposure time 72 h, RPMI 1640 + 20 mM HEPES + 2 mM L-glutamine
Method: as §1, §2

HT-29 (Human colon) = test: cytotoxic effect on HT-29 tumour cell line (comparison with taxol); settings: exposure time 72 h, RPMI 1640 + 20 mM HEPES + 2 mM L-glutamine
Method: as §1, §2

MCF7 (Human breast) = test: cytotoxic effect on MCF7 tumour cell line (comparison with taxol); settings: exposure time 72 h, RPMI 1640 + 20 mM HEPES + 2 mM L-glutamine
Method: as §1, §2

MCF7-ADR (resistant) = test: cytotoxic effect on MCF7-ADR resistant tumour cell line (comparison with taxol); settings: exposure time 72 h, RPMI 1640 + 20 mM HEPES + 2 mM L-glutamine
Method: as §1, §2

## 13-[(2R, 3S)-3-phenyl-2-hydroxy-3-tert-butoxycarbonylamino-propanoyl]-10-deacetyl-11,12-dihydrobaccatine III [1b]
L1210 (murine leukemia)
  IC50: 32 ± 0.1 nM
A121 (Human ovarian)
  IC50: 1.6 ± 0.2 nM
A549 (Human NSCLC)
  IC50: 2.1 ± 0.3 nM
HT-29 (Human colon)
  IC50: 3.6 ± 0.4 nM
MCF7 (Human breast)
  IC50: 0.8 ± 0.2 nM
MCF7-ADR (resistant)
  IC50: 128 ± 6.2 nM

## CC(=O)O[C@@]12CO[C@@H]1C[C@H](O)[C@@]1(C)C(=O)[C@@H](O)C3=C(C)[C@@H](OC(=O)[C@H](O)[C@@H](NC(=O)OC(C)(C)C)c4ccccc4)C[C@@](O)([C@@H](OC(=O)c4ccccc4)[C@H]21)C3(C)C [1a, 13-[(2R, 3S)-3-phenyl-2-hydroxy-3-tert-butoxycarbonylamino-propanoyl]-10-epi-10-deacetylbaccatine III]
L1210 (murine leukemia); Mus musculus
  IC50: 46 ± 2.1 nM
A121 (Human ovarian)
  IC50: 2.8 ± 0.3 nM
A549 (Human NSCLC)
  IC50: 6.9 ± 0.3 nM
HT-29 (Human colon)
  IC50: 3.4 ± 0.1 nM
MCF7 (Human breast)
  IC50: 2.2 ± 0.2 nM
MCF7-ADR (resistant); Homo sapiens, NCI/ADR-RES
  IC50: 130 ± 2.2 nM

## CC(=O)O[C@@]1([C@@H]2C(C)=C(O)C(=O)C3=C(C)[C@@H](OC(=O)[C@H](O)[C@@H](NC(=O)OC(C)(C)C)c4ccccc4)C[C@@](O)([C@H]2OC(=O)c2ccccc2)C3(C)C)CO[C@@H]1CCO [5a, 13-[(2R, 3S)-3-phenyl-2-hydroxy-3-tert-butoxy-carbonylamino-propanoyl]-C-seco-10-deacetylbaccatine III]
L1210 (murine leukemia); Mus musculus
  IC50: 35 ± 1.2 nM
A121 (Human ovarian)
  IC50: 1.9 nM
A549 (Human NSCLC)
  IC50: 3.3 nM
HT-29 (Human colon)
  IC50: 3.2 nM
MCF7 (Human breast)
  IC50: 1.5 nM
MCF7-ADR (resistant); Homo sapiens, NCI/ADR-RES
  IC50: 31.3 nM
